According to ChEMBL document CHEMBL4346714, “Multitarget PPARγ agonists as innovative modulators of the metabolic syndrome” (Eur J Med Chem, 2019):

Assays:
[1] = target: T1, Peroxisome proliferator-activated receptor gamma (Homo sapiens) (UniProt P37231); experiment: Agonist activity at PPARgamma (unknown origin) at 10 uM by luciferase reporter gene assay relative to control
T1 sequence (whole entry): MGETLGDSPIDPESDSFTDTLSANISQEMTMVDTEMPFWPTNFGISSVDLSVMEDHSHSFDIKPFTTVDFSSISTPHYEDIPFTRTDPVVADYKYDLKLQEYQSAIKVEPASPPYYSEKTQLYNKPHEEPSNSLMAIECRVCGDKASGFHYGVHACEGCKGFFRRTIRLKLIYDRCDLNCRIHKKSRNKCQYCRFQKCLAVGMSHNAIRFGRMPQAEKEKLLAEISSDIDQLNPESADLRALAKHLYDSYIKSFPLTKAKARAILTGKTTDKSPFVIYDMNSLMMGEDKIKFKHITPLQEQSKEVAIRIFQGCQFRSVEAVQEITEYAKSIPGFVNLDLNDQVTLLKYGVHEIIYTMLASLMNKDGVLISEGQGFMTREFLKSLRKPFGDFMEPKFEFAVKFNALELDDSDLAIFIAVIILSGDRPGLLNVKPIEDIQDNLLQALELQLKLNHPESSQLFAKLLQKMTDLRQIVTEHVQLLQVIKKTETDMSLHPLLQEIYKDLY

[2] = target: T2, Hexokinase-4 (Homo sapiens) (UniProt P35557); experiment: Activation of glucokinase (unknown origin) at 10 uM relative to control
T2 sequence (whole entry): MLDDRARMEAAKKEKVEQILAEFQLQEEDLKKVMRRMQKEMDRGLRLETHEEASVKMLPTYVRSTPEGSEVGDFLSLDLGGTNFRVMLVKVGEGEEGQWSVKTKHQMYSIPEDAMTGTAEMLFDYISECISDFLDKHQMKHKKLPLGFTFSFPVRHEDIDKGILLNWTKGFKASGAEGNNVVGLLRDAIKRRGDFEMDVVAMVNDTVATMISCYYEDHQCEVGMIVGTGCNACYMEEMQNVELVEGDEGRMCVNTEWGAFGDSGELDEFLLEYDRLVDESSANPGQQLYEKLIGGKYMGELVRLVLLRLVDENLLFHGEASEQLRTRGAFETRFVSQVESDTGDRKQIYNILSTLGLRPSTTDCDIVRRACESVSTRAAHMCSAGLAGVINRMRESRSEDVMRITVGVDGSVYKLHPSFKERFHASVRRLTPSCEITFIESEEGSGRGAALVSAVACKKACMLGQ

[3] = target: T1, Peroxisome proliferator-activated receptor gamma (Homo sapiens); experiment: Transactivation of PPARgamma (unknown origin) expressed in HEK293 cells at 10 uM after 24 to 48 hrs by luciferase reporter gene assay relative to control; assay type: cell-based
[4] = target: T2, Hexokinase-4 (Homo sapiens); experiment: Activation of recombinant human glucokinase assessed as conversion of D-glucose to D-glucose-6-phosphate dehydrate at 10 uM by G6PDH/NADP coupled assay relative to control

Row | SMILES | Efficacy [1] [%] | fold change (FC) [2] | Efficacy [3] [%] | fold change (FC) [4]
1 | CCOC(=O)c1ccc(NC(=O)Cc2ccc(/C=C3\SC(=O)NC3=O)cc2[N+](=O)[O-])nc1 | 47.4 | 2.7 |  | 
2 | CC(C)OC(=O)c1ccc(NC(=O)Cc2ccc(/C=C3\SC(=O)NC3=O)cc2[N+](=O)[O-])nc1 | 48 | 2.9 |  | 
3 | O=C(Cc1ccc(/C=C2\SC(=O)NC2=O)cc1[N+](=O)[O-])Nc1ccccn1 | 47.1 | 2.9 |  | 
4 | CCCOc1ccc(OCc2cccc(F)c2)cc1C(=O)Nc1ccc(C(=O)O)cn1 |  |  | 52.7 | 1.7
